64 compounds from ChEMBL document CHEMBL1133477, “Discovery of novel p-arylthio cinnamides as antagonists of leukocyte function-associated antigen-1/intracellular adhesion molecule-1 interaction. 1. Identification of an additional binding pocket based on an anilino diaryl sulfide lead” (J Med Chem, 2000) can be followed below.

Assay [1] deals with T1, Intercellular adhesion molecule (ICAM-1), Integrin alpha-L/beta-2 (Homo sapiens, UniProt P05107+P20701). The assay can be described thus: Ability to block the interaction between integrin LFA-1 and its adhesion partner ICAM-1 in a time-resolved fluorescent LFA-1/ICAM-1 biochemical interaction assay. Format: protein-complex assay.
For assay [2], the target named is T1, Intercellular adhesion molecule (ICAM-1), Integrin alpha-L/beta-2. In words: Inhibition against binding of LFA-1 to ICAM-1. Format: protein-complex assay.

T1 sequence (P20701 whole entry): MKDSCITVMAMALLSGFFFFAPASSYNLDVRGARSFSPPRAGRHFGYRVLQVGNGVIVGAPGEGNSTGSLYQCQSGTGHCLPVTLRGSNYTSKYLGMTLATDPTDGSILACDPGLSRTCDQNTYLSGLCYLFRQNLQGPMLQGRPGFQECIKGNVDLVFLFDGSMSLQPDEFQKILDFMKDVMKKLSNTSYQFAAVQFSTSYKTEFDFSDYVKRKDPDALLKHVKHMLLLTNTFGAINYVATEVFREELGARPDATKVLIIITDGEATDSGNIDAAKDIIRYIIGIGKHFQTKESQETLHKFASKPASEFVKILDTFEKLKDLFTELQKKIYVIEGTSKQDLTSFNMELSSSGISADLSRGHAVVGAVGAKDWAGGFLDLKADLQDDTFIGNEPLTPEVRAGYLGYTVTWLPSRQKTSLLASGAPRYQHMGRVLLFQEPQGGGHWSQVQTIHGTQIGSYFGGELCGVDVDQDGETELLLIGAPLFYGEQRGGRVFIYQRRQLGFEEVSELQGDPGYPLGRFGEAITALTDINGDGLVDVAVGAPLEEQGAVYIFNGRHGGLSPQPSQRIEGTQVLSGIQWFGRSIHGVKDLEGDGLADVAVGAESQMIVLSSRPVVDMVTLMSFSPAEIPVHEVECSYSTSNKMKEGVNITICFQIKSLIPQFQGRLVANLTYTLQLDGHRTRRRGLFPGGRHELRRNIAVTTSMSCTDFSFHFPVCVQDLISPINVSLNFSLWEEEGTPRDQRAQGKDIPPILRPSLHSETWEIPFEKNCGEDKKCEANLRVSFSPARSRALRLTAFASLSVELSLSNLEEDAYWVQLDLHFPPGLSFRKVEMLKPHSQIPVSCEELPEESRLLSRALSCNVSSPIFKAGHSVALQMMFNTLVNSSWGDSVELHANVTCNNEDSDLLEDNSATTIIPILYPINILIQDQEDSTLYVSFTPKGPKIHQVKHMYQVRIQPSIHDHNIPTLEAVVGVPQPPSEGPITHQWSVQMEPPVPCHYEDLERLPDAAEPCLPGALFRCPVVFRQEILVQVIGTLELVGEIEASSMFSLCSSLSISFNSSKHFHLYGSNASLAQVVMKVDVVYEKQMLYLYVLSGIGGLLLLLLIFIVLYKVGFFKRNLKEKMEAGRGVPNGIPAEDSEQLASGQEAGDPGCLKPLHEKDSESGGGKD
T1 sequence (P05362 whole entry, further chain): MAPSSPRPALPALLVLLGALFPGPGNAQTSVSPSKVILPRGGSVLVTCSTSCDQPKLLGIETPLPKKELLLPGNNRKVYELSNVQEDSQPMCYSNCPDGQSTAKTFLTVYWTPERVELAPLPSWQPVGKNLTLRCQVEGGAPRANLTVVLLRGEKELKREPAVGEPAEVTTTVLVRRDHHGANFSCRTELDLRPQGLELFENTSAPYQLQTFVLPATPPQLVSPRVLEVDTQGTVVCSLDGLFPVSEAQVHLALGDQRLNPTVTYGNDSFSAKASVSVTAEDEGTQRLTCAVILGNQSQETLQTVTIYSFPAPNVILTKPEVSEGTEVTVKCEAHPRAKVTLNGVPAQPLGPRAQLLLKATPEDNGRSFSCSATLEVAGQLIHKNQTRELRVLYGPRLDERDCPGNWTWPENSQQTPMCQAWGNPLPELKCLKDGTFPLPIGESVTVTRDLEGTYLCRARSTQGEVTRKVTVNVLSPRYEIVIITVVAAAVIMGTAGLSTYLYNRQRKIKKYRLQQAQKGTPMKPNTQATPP
T1 sequence (P05107 whole entry): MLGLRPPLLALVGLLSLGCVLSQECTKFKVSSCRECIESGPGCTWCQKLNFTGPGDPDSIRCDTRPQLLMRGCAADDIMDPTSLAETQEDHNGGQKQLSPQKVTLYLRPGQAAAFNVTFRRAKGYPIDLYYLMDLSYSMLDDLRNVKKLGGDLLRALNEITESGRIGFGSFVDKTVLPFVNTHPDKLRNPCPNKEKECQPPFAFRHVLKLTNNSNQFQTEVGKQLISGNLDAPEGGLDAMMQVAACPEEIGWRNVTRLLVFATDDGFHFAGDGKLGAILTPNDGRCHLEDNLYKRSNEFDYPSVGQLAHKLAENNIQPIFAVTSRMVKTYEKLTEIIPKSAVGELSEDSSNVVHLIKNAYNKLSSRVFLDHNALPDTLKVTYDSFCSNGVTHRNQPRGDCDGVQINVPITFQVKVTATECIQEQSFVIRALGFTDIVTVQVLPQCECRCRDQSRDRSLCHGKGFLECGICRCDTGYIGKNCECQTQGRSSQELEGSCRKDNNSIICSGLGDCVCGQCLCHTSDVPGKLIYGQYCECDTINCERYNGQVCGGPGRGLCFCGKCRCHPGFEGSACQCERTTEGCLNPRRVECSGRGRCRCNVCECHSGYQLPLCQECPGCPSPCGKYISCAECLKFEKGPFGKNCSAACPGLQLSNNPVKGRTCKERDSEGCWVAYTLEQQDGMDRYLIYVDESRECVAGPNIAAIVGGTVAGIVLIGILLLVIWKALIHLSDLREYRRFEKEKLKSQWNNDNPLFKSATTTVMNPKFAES

The compound `CC(=O)N1CCN(C(=O)/C=C/c2ccc(Sc3ccc(Cl)cc3Cl)c(Cl)c2)CC1` had an IC50 in assay [1] of 140 nM.

Compound `O=C(/C=C/c1ccccc1Sc1ccc(Cl)cc1Cl)NCCCn1ccnc1` returned an IC50 in assay [1] of 960 nM. `O=CN1CCN(Cc2ccccc2Sc2ccc(/C=C/C(=O)N3CCOCC3)cc2Cl)CC1`: in assay [1], the IC50 stood at 420 nM. This IC50 lies about 2.3-fold lower than the previous one.

Turning to `CC(=O)N1CCN(C(=O)/C=C/c2ccc(Sc3ccccc3Cl)c([N+](=O)[O-])c2)CC1`, the IC50 in assay [1] was found to be 110 nM. The compound `O=C(/C=C/c1ccccc1Sc1ccc(Cl)cc1Cl)NCCCCCCO` returned an IC50 in assay [1] of 100000 nM. This IC50 lies about 910-fold higher than the previous one.

For the compound `O=C(/C=C/c1cccc(Sc2ccc(Cl)cc2Cl)c1)N(CCO)CCO`, the IC50 in assay [1] came out at 15000 nM.

Compound `O=C(/C=C/c1ccccc1Sc1ccc(Cl)cc1Cl)NCC1CCCO1` (centres undefined) returned an IC50 in assay [1] of 2100 nM.

As to `CC(=O)N1CCN(C(=O)/C=C/c2ccc(Sc3ccccc3N)c([N+](=O)[O-])c2)CC1`, in assay [1], the IC50 came out at 620 nM. With `O=C(/C=C/c1ccccc1Sc1ccc(Cl)cc1Cl)N1CCOCC1`, in assay [1], half-maximal inhibition (IC50) was put at 1200 nM.

For `CC(=O)N1CCN(C(=O)/C=C/c2ccc(Sc3ccc(Cl)cc3Cl)c([N+](=O)[O-])c2)CC1`, the IC50 in assay [1] amounted to 90 nM. On to `O=C(/C=C/c1ccccc1Sc1ccc(Cl)cc1Cl)NCC(O)CO` (centres undefined), for which the IC50 in assay [1] was 3800 nM.

Compound `O=C(/C=C/c1ccc(Sc2ccc(Cl)cc2Cl)c(Cl)c1)N1CCN(c2ccccn2)CC1` showed an IC50 in assay [1] of 750 nM. `O=C(/C=C/c1ccc(Sc2ccc(Cl)cc2Cl)c(/C=C/C(=O)N2CCOCC2)c1)N1CCOCC1`: the IC50 in assay [1] is above 20000 nM. On to `CC(=O)N1CCN(C(=O)/C=C/c2ccc(Sc3cccc(Cl)c3Cl)c([N+](=O)[O-])c2)CC1`, for which the IC50 in assay [1] was determined as 100 nM. In other words, the sub-micromolar range. `CC(=O)N1CCN(C(=O)/C=C/c2ccc(Sc3ccccc3C=O)c([N+](=O)[O-])c2)CC1` gave an IC50 in assay [1] of 60 nM. With `CN(C)CCC(=O)Nc1ccccc1Sc1ccc(Cl)cc1Cl`, the IC50 in assay [1] came to 82000 nM.

`CN1CCN(CCC(=O)Nc2ccccc2Sc2ccc(Cl)cc2Cl)CC1` came in with an IC50 in assay [1] of 33000 nM. For the compound `O=C(/C=C/c1ccc(Sc2ccc(Cl)cc2Cl)c(/C=C/C(=O)N2CCOCC2)c1)NCCCN1CCCC1=O`, the IC50 in assay [1] was above 20000 nM. Regarding `O=C(/C=C/c1ccc(Sc2ccccc2CN2CCOCC2)c(Cl)c1)N1CCOCC1`, half-maximal inhibition in assay [1] (IC50) was put at 150 nM. Regarding `CCc1ccccc1Sc1ccc(/C=C/C(=O)N2CCN(C(C)=O)CC2)cc1[N+](=O)[O-]`, the IC50 in assay [1] turned out to be 65 nM. For the compound `O=C(O)c1cc(/C=C/C(=O)N2CCOCC2)ccc1Sc1ccc(Cl)cc1Cl`, in assay [1], the IC50 is above 20000 nM. In assay [1], `CN(CCC(=O)Nc1ccccc1Sc1ccc(Cl)cc1Cl)Cc1ccccc1` gave an IC50 above 100000 nM. Consider `Clc1ccc(Sc2ccccc2NCCCN2CCOCC2)c(Cl)c1`, for which the IC50 in assay [1] came out at 140 nM. In assay [1], `CC(=O)N1CCN(C(=O)/C=C/c2ccc(Sc3ccccc3C(N)=O)c([N+](=O)[O-])c2)CC1` yielded an IC50 of 16200 nM. On the same count and under the same terms, the figure for `O=C(/C=C/c1ccccc1Sc1ccc(Cl)cc1Cl)NCCc1ccccc1` is above 100000 nM. Take `CC(=O)N1CCN(C(=O)/C=C/c2ccc(Sc3ccccc3C)c([N+](=O)[O-])c2)CC1`: 120 nM corresponded to half-maximal inhibition in assay [1] (IC50). On the same count and under the same terms, then `O=C(/C=C/c1ccc(Sc2ccc(Cl)cc2Cl)c(Cl)c1)NCCCn1ccnc1`, with 1400 nM; and `O=C(/C=C/c1cccc(Sc2ccc(Cl)cc2Cl)c1)N1CCOCC1`, with 16500 nM; and `O=C(/C=C/c1ccc(Sc2ccc(Cl)cc2Cl)c(Cl)c1)NCCCCCCO`, with 590 nM. Consider `CC(=O)N1CCN(C(=O)/C=C/c2ccc(Sc3ccccc3C(C)(C)C)c([N+](=O)[O-])c2)CC1`, for which, in assay [1], the IC50 was determined as 530 nM.

`O=Cc1cc(/C=C/C(=O)N2CCOCC2)ccc1Sc1ccc(Cl)cc1Cl` returned an IC50 in assay [1] of 610 nM. For `O=C(/C=C/c1ccc(Sc2ccc(Cl)cc2Cl)c(NCCCN2CCOCC2)c1)NCCCN1CCCC1=O`, half-maximal inhibition in assay [1] (IC50) was put at 15500 nM.

With `O=C(/C=C/c1ccc(Sc2ccc(Cl)cc2Cl)c(Br)c1)NCCCN1CCCC1=O`, the IC50 in assay [1] amounted to 650 nM.

Take `O=C(/C=C/c1ccccc1Sc1ccc(Cl)cc1Cl)NCCO`: in assay [1], inhibition was half-maximal at 3300 nM (IC50).

As to `O=C(/C=C/c1ccc(Sc2ccc(Cl)cc2Cl)c(Cl)c1)N(CCO)CCO`, in assay [1], 710 nM corresponded to half-maximal inhibition (IC50). In the case of `Cc1cccc2sc(NC(=O)/C=C/c3ccccc3Sc3ccc(Cl)cc3Cl)nc12`, in assay [1], the IC50 is above 100000 nM. `Nc1cc(/C=C/C(=O)NCCCN2CCCC2=O)ccc1Sc1ccc(Cl)cc1Cl`: the IC50 in assay [1] was determined as 19000 nM. That is a double-digit micromolar value. In assay [1], `O=C(O)/C=C/c1ccc(Sc2ccc(Cl)cc2Cl)c(Cl)c1` gave an IC50 of 2600 nM.

Compound `CCOC(=O)CN(C)Cc1ccccc1Sc1ccc(/C=C/C(=O)N2CCOCC2)cc1Cl` gave an IC50 in assay [1] of 260 nM. This IC50 lies about 10-fold lower than the previous one. `CCCN(CCC)CCC(=O)Nc1ccccc1Sc1ccc(Cl)cc1Cl` gave an IC50 in assay [1] of 61000 nM. In assay [1], `CC(=O)N1CCN(C(=O)/C=C/c2ccc(Sc3ccc(Cl)cc3Cl)c(/C=C/C(=O)N3CCOCC3)c2)CC1` displayed an IC50 of 18000 nM. As for `Nc1ccc(Sc2ccc(Cl)cc2Cl)c(Cl)c1`, in assay [2], the IC50 was determined as 1700 nM.

In assay [1], `O=C(/C=C/c1ccc(Sc2ccccc2CN2CCN(Cc3ccc4c(c3)OCO4)CC2)c(Cl)c1)N1CCOCC1` displayed an IC50 of 100 nM. Same read-out and setting: the figure for `O=C(/C=C/c1ccc(Sc2ccc(Cl)cc2Cl)c(Cl)c1)NCCO` is 920 nM; for `O=C(/C=C/c1ccc(Sc2ccc(Cl)cc2Cl)c(Cl)c1)NCCCN1CCCC1=O` it is 550 nM; for `CN1CCN(C(=O)/C=C/c2ccc(Sc3ccc(Cl)cc3Cl)c(Cl)c2)CC1` it is 1100 nM. `O=C(CCN1CCCC1)Nc1ccccc1Sc1ccc(Cl)cc1Cl` gave an IC50 in assay [1] above 10000 nM.

For the compound `O=C(O)CNC(=O)/C=C/c1ccccc1Sc1ccc(Cl)cc1Cl`, in assay [1], the half-maximal inhibitory concentration (IC50) is 3900 nM. Regarding `O=C(/C=C/c1ccccc1Sc1ccc(Cl)cc1Cl)N(CCO)CCO`, the IC50 in assay [1] was determined as 2300 nM. For the compound `O=C(/C=C/c1cccc(Sc2ccc(Cl)cc2Cl)c1)NCCCn1ccnc1`, the IC50 in assay [1] came out at 7000 nM. In assay [1], `CN(C)CCNCc1ccccc1Sc1ccc(Cl)cc1Cl` came in with an IC50 of 5600 nM. For `O=C(CCN1CCOCC1)Nc1ccccc1Sc1ccc(Cl)cc1Cl`, in assay [1], the midpoint of inhibition, the IC50, lay at 12000 nM. On the same count and under the same terms, then `O=C(/C=C/c1ccc(Sc2ccccc2/C=C/C(=O)N2CCOCC2)c(Cl)c1)N1CCOCC1`, with 180 nM.

As to `O=C(/C=C/c1ccccc1Sc1ccc(Cl)cc1Cl)NCCCN1CCCC1=O`, 1600 nM corresponded to half-maximal inhibition in assay [1] (IC50). In turn, `O=C(O)/C=C/c1ccccc1Sc1ccc(Cl)cc1Cl` registered an IC50 in assay [1] of 2600 nM. Compared with the last compound, the IC50 is about 1.6-fold higher. For `CC(=O)N1CCN(C(=O)/C=C/c2ccc(Sc3ccccc3N(C)C)c([N+](=O)[O-])c2)CC1`, in assay [1], the IC50 was found to be 310 nM. Regarding `O=C(/C=C/c1cccc(Sc2ccc(Cl)cc2Cl)c1)NCCCCCCO`, the IC50 in assay [1] stood at 9800 nM. Compound `O=C(/C=C/c1ccc(Sc2ccc(Cl)cc2Cl)c(Cl)c1)N1CCOCC1` came in with an IC50 in assay [1] of 460 nM. Regarding `O=C(/C=C/c1ccccc1Sc1ccc(Cl)cc1Cl)N(Cc1ccccc1)Cc1ccc(Oc2ccccc2)cc1`, the IC50 in assay [1] is above 100000 nM. Consider `O=C(/C=C/c1ccc(Sc2ccc(Cl)cc2Cl)c([N+](=O)[O-])c1)NCCCN1CCCC1=O`, for which the half-inhibitory concentration (IC50) in assay [1] is 170 nM.

Consider `NC(=O)c1cc(/C=C/C(=O)N2CCOCC2)ccc1Sc1ccc(Cl)cc1Cl`, for which the IC50 in assay [1] is above 20000 nM.

As to `O=C(/C=C/c1ccc(Sc2ccccc2NCCCN2CCOCC2)c(Cl)c1)N1CCOCC1`, the IC50 in assay [1] came out at 180 nM. In turn, `O=C(/C=C/c1cccc(Sc2ccc(Cl)cc2Cl)c1)NCCCN1CCCC1=O` registered an IC50 in assay [1] of 4500 nM. This IC50 lies about 25-fold higher than the previous one. In assay [2], `CN(C)CCN1c2ccccc2Sc2ccc(Cl)cc21` [CHOLRPHENETHAZINE] displayed an IC50 of 28000 nM. In other words, the double-digit micromolar range.

Broadly, the IC50 is the concentration that inhibits the measured activity by half. The low end stands for greater potency, the high end for weaker potency.
